Measured values: ChEMBL document CHEMBL3046038, “Antifeedant effects and chemical composition of essential oils from different populations of Lavandula luisieri L” (Biochem Syst Ecol, 2006)

How the values were obtained:
Spodoptera littoralis [1] = assay: Antifeedant activity against Spodoptera littoralis fed on compound treated artificial diet assessed as food ingested by choice feeding assay relative to control; assay type: functional
[2] = test system: Leptinotarsa decemlineata; assay: Antifeedant activity against adult Leptinotarsa decemlineata fed on compound treated potato foliage by choice feeding assay; assay type: functional, organism-based
Spodoptera littoralis [3] = assay: Antifeedant activity against Spodoptera littoralis fed on compound treated artificial diet assessed as larval weight gain by choice feeding assay relative to control; assay type: functional
Spodoptera littoralis [4] = assay: Antifeedant activity against […] Spodoptera littoralis fed on compound treated artificial diet by choice feeding assay; assay type: functional, organism-based
Myzus persicae = assay: Antifeedant activity against apterous adult Myzus persicae (green peach aphid) fed on compound treated bell pepper assessed as settling on leaf by choice feeding assay (reference value: 52 to 70%); assay type: functional

EC50 [2]	EC50 (Spodoptera littoralis [4])	SMILES	Activity (Spodoptera littoralis [1])	Activity (Spodoptera littoralis [3])	Activity (Myzus persicae)
> 50 microg/cm2	> 50 microg/cm2	CC12CCC(CC1)C(C)(C)O2 [EUCALYPTOL]	95%	96%	37%
> 50 microg/cm2	> 50 microg/cm2	C=C1C(=O)C(C)=C(C)C1(C)C	88%	87%	48%
> 50 microg/cm2	> 50 microg/cm2	CC12CCC(C1)C(C)(C)C2=O (stereo not given) [FENCHONE]	91%	100%	30%
> 50 microg/cm2	> 50 microg/cm2	CC12CCC(CC1=O)C2(C)C (stereo not given) [CAMPHOR]	83%	97%	40%
